# Test results: patent US20250101017A1, “SALT CRYSTAL FORM AND FREE BASE CRYSTAL FORM OF KINASE INHIBITOR” (CYTOSINLAB THERAPEUTICS CO., LTD., priority 2022, published 2025)
# Where two headings read alike, the source gives them in different places.
# Assays:
# Type in all cases: physicochemical
# [1] = Solid stability of crystal forms (80° C., light exposure, 25° C./60% RH, 40° C./75% RH); purity by liquid chromatography and XRPD of the solids
# Description: A certain amount of API and malate crystal form VII-A were weighed and added into a liquid phase vial, and a total of 9 parallels were prepared. The 9 parallels were placed separately in 80° C. (open); 25° C., 60% RH (open); 40° C., 75% RH (open); and light stability box closed). The stabilities under conditions of: 80° C. for one day, light exposure for 10 days, as well as 25° C., 60% RH and 40° C., 75% RH for one and two weeks were tested, and the XRPD of the solids were measured.
# A certain amount of crystal form B was weighed and added into a liquid phase vial, and a total of 9 parallels were prepared. 9 parallels were placed separately in 80° C.; 25° C., 60% RH, 40° C., 75% RH; and light stability boxe.
# [2] = Solubility at 37° C. in buffer solutions with different pH (about 10 mg in 1 ml, 2 h and 24 h); filtrate concentration and pH, XRPD of remaining solid; settings: for solubility at 2 h / solubility at 24 h: read-out: Solubility at 37° C.
# Description: Approximately 10 mg of malate crystal form VII-A and free base Form A were weighed separately, and 1 ml of buffer solutions with different pH were added to make the solution supersaturated, and the mixtures were stirred at 37° C. for 2 h and 24 hours. The samples were filtered, and the filtrates were measured to determine the concentration and pH value, and the remaining solid was subjected to XRPD determination. The specific results were as follows: […]
# [3] = Dynamic moisture adsorption (DVS), hygroscopicity
# Description: DSV pattern determination method: Dynamic moisture adsorption was performed using Intrinsic DVS. In step mode, the sample is subjected to loop testing at a relative humidity of 0-90%. The sample is analyzed at 10% RH. The dm/dt is set to 0.002 to achieve equilibrium between the sample and the room environment.
# Approximately 250 mg of API was weighed and added into a 4 ml glass vial, and 2.5 ml of ethyl acetate was added. The mixture was stirred overnight under magnetic stirring at 50° C., cooled to room temperature, and then filtered, and the obtained solid was dried in vacuum overnight in a 50° C. oven. The resulting solid was free base crystal form Form B. The free base crystal form Form B was subjected to various characterization.
# [4] = Competitive pulping of API (free base Form A) and Form B in saturated DCM or water solution at 50° C., XRPD
# Description: A saturated solution of API (free base Form A) in DCM and water was prepared. Approximately 10 mg of API (free base Form A) and free base crystal form Form B was weighed respectively and added into a 4 ml glass bottle, and 1 mL of the saturated solution was added. […] The resulting solid was subjected to XRPD testing.
smiles,measurement,setting,value
"CCc1nc2c(N)ncc(-c3ccc(N4CCC(N5CCN(CC)CC5)CC4)c(OC)c3)c2nc1NC1CCOCC1 [Form B, 3-ethyl-8-(4-(4-(4-ethylpiperazin-1-yl)piperidin-1-yl)-3-methoxyphenyl)-N2-(tetrahydro-2H-pyran-4-yl) pyridino [3,4-b]pyrazine-2,5-diamine]",Crystal form,"[1]; 25° C., 60% RH, 1 week",Unchanged
same,Degradation,"[1]; 25° C., 60% RH, 1 week",0.00%
same,Purity,"[1]; 25° C., 60% RH, 1 week",97.69%
same,Crystal form,"[1]; 25° C., 60% RH, 2 weeks",Unchanged
same,Degradation,"[1]; 25° C., 60% RH, 2 weeks",0.00%
same,Purity,"[1]; 25° C., 60% RH, 2 weeks",97.67%
same,Crystal form,"[1]; 40° C., 75% RH, 1 week",Unchanged
same,Degradation,"[1]; 40° C., 75% RH, 1 week",0.00%
same,Purity,"[1]; 40° C., 75% RH, 1 week",97.70%
same,Crystal form,"[1]; 40° C., 75% RH, 2 weeks",Unchanged
same,Degradation,"[1]; 40° C., 75% RH, 2 weeks",0.01%
same,Purity,"[1]; 40° C., 75% RH, 2 weeks",97.66%
same,physical and chemical stability,"[1]; 80° C. 1 day, light 10 days, 25° C./60% RH and 40° C./75% RH 1 and 2 weeks",good physical and chemical stability
same,Crystal form,"[1]; 80° C., 1 day",Unchanged
same,Degradation,"[1]; 80° C., 1 day",0.17%
same,Purity,"[1]; 80° C., 1 day",97.50%
same,Crystal form,"[1]; Light control, 10 days",Unchanged
same,Degradation,"[1]; Light control, 10 days",0.00%
same,Purity,"[1]; Light control, 10 days",97.67%
same,Crystal form,"[1]; Light exposure, 10 days",Unchanged
same,Degradation,"[1]; Light exposure, 10 days",0.04%
same,Purity,"[1]; Light exposure, 10 days",97.63%
same,Purity,[1]; initial,97.67%
same,solubility compared to API,"[2]; 37° C., pH 6.8, pH 7.4, FaSSIF and water",improved compared to API
same,solubility at 2 h,"[2]; FaSSIF, 37 °C, fassif, thermodynamic from solid, medium FaSSIF, 2 h",1190 µg/mL
same,solubility at 24 h,"[2]; FaSSIF, 37 °C, fassif, thermodynamic from solid, medium FaSSIF, 24 h",1400 µg/mL
same,solubility at 2 h,"[2]; FeSSIF, 37 °C, fessif, thermodynamic from solid, medium FeSSIF, 2 h",> 10000 µg/mL
same,solubility at 24 h,"[2]; FeSSIF, 37 °C, fessif, thermodynamic from solid, medium FeSSIF, 24 h",> 10000 µg/mL
same,solubility at 2 h,"[2]; SGF, 37 °C, simulated gastric fluid, thermodynamic from solid, medium SGF, 2 h",> 10000 µg/mL
same,solubility at 24 h,"[2]; SGF, 37 °C, simulated gastric fluid, thermodynamic from solid, medium SGF, 24 h",> 10000 µg/mL
same,solubility at 2 h,"[2]; buffer solution pH 6.8, 37 °C, pH 6.8, aqueous buffer, thermodynamic from solid, medium pH 6.8, 2 h",310 µg/mL
same,solubility at 24 h,"[2]; buffer solution pH 6.8, 37 °C, pH 6.8, aqueous buffer, thermodynamic from solid, medium pH 6.8, 24 h",250 µg/mL
same,solubility,"[2]; buffer solutions: pH 1.2, pH 3.0, pH 4.5, FeSSIF, SGF, 37 °C, aqueous buffer, thermodynamic from solid, 37° C., pH 1.2, pH 3.0, pH 4.5, FeSSIF, and SGF buffer",> 10000 µg/mL
same,Crystal form,"[2]; medium FaSSIF, XRPD of remaining solid",Form B
same,pH (24 h),"[2]; medium FaSSIF, filtrate, 37° C.",6.755
same,pH (24 h),"[2]; medium FeSSIF, filtrate, 37° C.",5.724
same,Solubility at 37° C.,"[2]; medium H2O, 24 h",17.9 µg/mL
same,Crystal form,"[2]; medium H2O, XRPD of remaining solid",Form B
same,pH (24 h),"[2]; medium H2O, filtrate, 37° C.",7.197
same,pH (24 h),"[2]; medium SGF, filtrate, 37° C.",1.910
same,Solubility at 37° C.,"[2]; medium pH 1.2, 2 h",>10000 µg/mL
same,Solubility at 37° C.,"[2]; medium pH 1.2, 24 h",>10000 µg/mL
same,pH (24 h),"[2]; medium pH 1.2, filtrate, 37° C.",1.925
same,Solubility at 37° C.,"[2]; medium pH 3.0, 2 h",>10000 µg/mL
same,Solubility at 37° C.,"[2]; medium pH 3.0, 24 h",>10000 µg/mL
same,pH (24 h),"[2]; medium pH 3.0, filtrate, 37° C.",4.892
same,Solubility at 37° C.,"[2]; medium pH 4.5, 2 h",>10000 µg/mL
same,Solubility at 37° C.,"[2]; medium pH 4.5, 24 h",>10000 µg/mL
same,pH (24 h),"[2]; medium pH 4.5, filtrate, 37° C.",6.062
same,Crystal form,"[2]; medium pH 6.8, XRPD of remaining solid",Form B
same,pH (24 h),"[2]; medium pH 6.8, filtrate, 37° C.",6.813
same,Solubility at 37° C.,"[2]; medium pH 7.4, 2 h",47.2 µg/mL
same,Solubility at 37° C.,"[2]; medium pH 7.4, 24 h",39.9 µg/mL
same,Crystal form,"[2]; medium pH 7.4, XRPD of remaining solid",Form B
same,pH (24 h),"[2]; medium pH 7.4, filtrate, 37° C.",7.311
same,crystal form in the buffers,"[2]; remaining solids, XRPD",remained unchanged
same,solubility at 2 h,"[2]; water, 37 °C, water, thermodynamic from solid, medium H2O, 2 h",39.5 µg/mL
same,crystal form before and after DVS testing,[3],did not change
same,solid crystal form obtained by competitive pulping,"[4]; API and Form B together in DCM, 50° C., 3 days, XRPD",tended to approach Form L
same,appearance after competitive pulping,"[4]; API and Form B together in DCM, after 5 days of beating",became oily
same,crystal form obtained by competitive pulping,"[4]; API and Form B together in water, 50° C., 3 days, XRPD",a mixture of Form B and API
same,XRPD results,"[4]; competitive pulping of API and Form B, DCM, 50° C., 3 days",Form K
